Experimental data: PubChem BioAssay (NCI)
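Dose response: 5 concentrations. Exposure: 48 h. Format: 96-well plates. Endpoint: linear interpolation; highest concentration if not reached. TGI: concentration producing complete growth inhibition.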

Legend:
Experiment in all cases: NCI anticancer screen, dose series, 48 h
[1] = system: 786-0 renal
[2] = system: A498 renal
[3] = system: A549 NSCLC
[4] = system: ACHN renal
[5] = system: CAKI-1 renal
[6] = system: CCRF-CEM leukemia
[7] = system: COLO 205 colon
[8] = system: DLD-1 colon
[9] = system: DMS 114 small cell lung
[10] = system: EKVX NSCLC
[11] = system: HCC-2998 colon
[12] = system: HCT-116 colon
[13] = system: HCT-15 colon
[14] = system: HOP-62 NSCLC
[15] = system: HT29 colon
[16] = system: IGROV1 ovarian
[17] = system: K-562 leukemia
[18] = system: KM12 colon
[19] = system: KM20L2 colon
[20] = system: LOX IMVI melanoma
[21] = system: LXFL 529 NSCLC
[22] = system: M14 melanoma
[23] = system: M19-MEL melanoma
[24] = system: MALME-3M melanoma
[25] = system: MOLT-4 leukemia
[26] = system: NCI-H23 lung
[27] = system: NCI-H460 lung
[28] = system: NCI-H522 lung
[29] = system: OVCAR-3 ovarian
[30] = system: OVCAR-4 ovarian
[31] = system: OVCAR-8 ovarian
[32] = system: RPMI-8226 leukemia
[33] = system: RXF 393 renal
[34] = system: RXF-631 renal
[35] = system: SF-268 CNS
[36] = system: SF-295 CNS
[37] = system: SF-539 CNS
[38] = system: SK-MEL-2 melanoma
[39] = system: SK-MEL-28 melanoma
[40] = system: SK-MEL-5 melanoma
[41] = system: SK-OV-3 ovarian
[42] = system: SN12C renal
[43] = system: SNB-75 CNS
[44] = system: SW-620 colon
[45] = system: TK-10 renal
[46] = system: U251 CNS
[47] = system: UACC-257 melanoma
[48] = system: UACC-62 melanoma
[49] = system: XF 498 CNS
[50] = system: DMS 273 small cell lung
[51] = system: HL-60(TB) leukemia
[52] = system: HOP-92 NSCLC
[53] = system: NCI-H226 lung
[54] = system: OVCAR-5 ovarian
[55] = system: SNB-19 CNS
[56] = system: UO-31 renal
[57] = system: HOP-18 NSCLC
[58] = system: SNB-78 CNS
[59] = system: SR leukemia

For `CC(N)Cc1ccc(C(=O)Cl)cc1` (centres undefined), the TGI [1] was greater than 100 µM, the TGI [2] was greater than 100 µM and the TGI [3] was greater than 100 µM. It also gave a TGI [4] greater than 100 µM, a TGI [5] greater than 100 µM and a TGI [6] greater than 100 µM. It also gave a TGI [7] greater than 100 µM, a TGI [8] greater than 100 µM and a TGI [9] greater than 100 µM. For the same compound, the TGI [10] was greater than 100 µM, the TGI [11] was greater than 100 µM and the TGI [12] was greater than 100 µM. It also gave a TGI [13] greater than 100 µM, a TGI [14] greater than 100 µM and a TGI [15] greater than 100 µM. The TGI [16] was greater than 100 µM, the TGI [17] was greater than 100 µM and the TGI [18] was greater than 100 µM. The TGI [19] was greater than 100 µM, the TGI [20] was greater than 100 µM and the TGI [21] was greater than 100 µM. The TGI [22] was greater than 100 µM, the TGI [23] was greater than 100 µM and the TGI [24] was greater than 100 µM. The TGI [25] was greater than 100 µM, the TGI [26] was greater than 100 µM and the TGI [27] was greater than 100 µM. For the same compound, the TGI [28] was greater than 100 µM, the TGI [29] was greater than 100 µM and the TGI [30] was greater than 100 µM. For the same compound, the TGI [31] was greater than 100 µM, the TGI [32] was greater than 100 µM and the TGI [33] was greater than 100 µM. For the same compound, the TGI [34] was greater than 100 µM, the TGI [35] was greater than 100 µM and the TGI [36] was greater than 100 µM. The TGI [37] was greater than 100 µM, the TGI [38] was greater than 100 µM and the TGI [39] was greater than 100 µM. It also gave a TGI [40] greater than 100 µM, a TGI [41] greater than 100 µM and a TGI [42] greater than 100 µM. It also gave a TGI [43] greater than 100 µM, a TGI [44] greater than 100 µM and a TGI [45] greater than 100 µM. The TGI [46] was greater than 100 µM, the TGI [47] was greater than 100 µM and the TGI [48] was greater than 100 µM. The TGI [49] was greater than 100 µM.

`CC1(c2ccc(F)cc2)C(C#N)C(=O)NC(=O)C1C#N` (centres undefined) gave a TGI [1] greater than 100 µM, a TGI [2] greater than 100 µM and a TGI [3] greater than 100 µM. The TGI [4] was greater than 100 µM, the TGI [5] was greater than 100 µM and the TGI [6] was greater than 100 µM. It also gave a TGI [7] greater than 100 µM, a TGI [8] greater than 100 µM and a TGI [9] greater than 100 µM. The TGI [50] was greater than 100 µM, the TGI [10] was greater than 100 µM and the TGI [11] was greater than 100 µM. It also gave a TGI [13] greater than 100 µM, a TGI [51] greater than 100 µM and a TGI [14] greater than 100 µM. The TGI [52] was greater than 100 µM, the TGI [15] was greater than 100 µM and the TGI [16] was greater than 100 µM. For the same compound, the TGI [17] was greater than 100 µM, the TGI [18] was greater than 100 µM and the TGI [19] was greater than 100 µM. The TGI [20] was greater than 100 µM, the TGI [21] was greater than 100 µM and the TGI [22] was greater than 100 µM. It also gave a TGI [23] greater than 100 µM, a TGI [24] greater than 100 µM and a TGI [25] greater than 100 µM. The TGI [53] was greater than 100 µM, the TGI [26] was greater than 100 µM and the TGI [27] was greater than 100 µM. The TGI [28] was greater than 100 µM, the TGI [29] was greater than 100 µM and the TGI [30] was greater than 100 µM. For the same compound, the TGI [54] was greater than 100 µM, the TGI [31] was greater than 100 µM and the TGI [32] was greater than 100 µM. The TGI [33] was greater than 100 µM, the TGI [34] was greater than 100 µM and the TGI [35] was greater than 100 µM. For the same compound, the TGI [36] was greater than 100 µM, the TGI [37] was greater than 100 µM and the TGI [38] was greater than 100 µM. The TGI [39] was greater than 100 µM, the TGI [40] was greater than 100 µM and the TGI [41] was greater than 100 µM. It also gave a TGI [42] greater than 100 µM, a TGI [55] greater than 100 µM and a TGI [43] greater than 100 µM. The TGI [44] was greater than 100 µM, the TGI [45] was greater than 100 µM and the TGI [47] was greater than 100 µM. It also gave a TGI [48] greater than 100 µM, a TGI [56] greater than 100 µM and a TGI [49] greater than 100 µM.

Compound `COC(CN1C(=O)c2cccc3cccc(c23)C1=O)OC` has a TGI [1] greater than 100 µM, a TGI [2] greater than 100 µM and a TGI [3] greater than 100 µM. For the same compound, the TGI [4] was greater than 100 µM, the TGI [6] was greater than 100 µM and the TGI [7] was greater than 100 µM. It also gave a TGI [8] greater than 100 µM, a TGI [9] greater than 100 µM and a TGI [50] greater than 100 µM. It also gave a TGI [10] greater than 100 µM, a TGI [11] greater than 100 µM and a TGI [12] greater than 100 µM. The TGI [13] was greater than 100 µM, the TGI [51] was greater than 100 µM and the TGI [57] was greater than 100 µM. It also gave a TGI [14] greater than 100 µM, a TGI [52] greater than 100 µM and a TGI [15] greater than 100 µM. For the same compound, the TGI [16] was greater than 100 µM, the TGI [17] was greater than 100 µM and the TGI [18] was greater than 100 µM. The TGI [19] was greater than 100 µM, the TGI [20] was greater than 100 µM and the TGI [21] was greater than 100 µM. It also gave a TGI [22] greater than 100 µM, a TGI [23] greater than 100 µM and a TGI [24] greater than 100 µM. For the same compound, the TGI [25] was greater than 100 µM, the TGI [53] was greater than 100 µM and the TGI [26] was greater than 100 µM. It also gave a TGI [27] greater than 100 µM, a TGI [29] greater than 100 µM and a TGI [30] greater than 100 µM. The TGI [54] was greater than 100 µM, the TGI [31] was greater than 100 µM and the TGI [32] was greater than 100 µM. It also gave a TGI [33] greater than 100 µM, a TGI [35] greater than 100 µM and a TGI [36] greater than 100 µM. For the same compound, the TGI [37] was greater than 100 µM, the TGI [38] was 86.3 µM and the TGI [39] was greater than 100 µM. For the same compound, the TGI [40] was greater than 100 µM, the TGI [41] was greater than 100 µM and the TGI [42] was greater than 100 µM. The TGI [55] was greater than 100 µM, the TGI [43] was greater than 100 µM and the TGI [58] was greater than 100 µM. It also gave a TGI [59] greater than 100 µM, a TGI [44] greater than 100 µM and a TGI [45] greater than 100 µM. For the same compound, the TGI [46] was greater than 100 µM, the TGI [47] was greater than 100 µM and the TGI [48] was greater than 100 µM. For the same compound, the TGI [56] was greater than 100 µM and the TGI [49] was greater than 100 µM.
